# Experimental data from the supplement of paper PMC10307832.
# Compound: Cc1ccc(C(=O)Nc2ccc(CN3CCN(C)CC3)c(C(F)(F)F)c2)cc1C#Cc1cnc2cccnn12 [Ponatinib] + COc1cc2c(Oc3ccc(NC(=O)C4(C(=O)Nc5ccc(F)cc5)CC4)cc3F)ccnc2cc1OCCCN1CCOCC1 [Foretinib] (partner 0.25 µM)
# Assay: relative viability (nuclei count vs DMSO), 5 days (fraction); higher = more cells survive
# Settings: first compound 0.002 µM
# Outline: (§1)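 Relative viability equals treated-well nuclei counts divided by vehicle-well nuclei counts. Counts came from 4× images of lung cancer cell lines grown in 1536-well plates for 5 days after pin-tool dosing on the day after seeding. Dosing used one drug alone or a fixed anchor-drug dose plus five library-drug doses (not always all listed) in √10 steps, and values are medians of duplicate plates.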
row,Cell Line,relative viability
1,NCI-H727,0.781
2,NCI-H1734,0.73
3,NCI-H2405,1
4,NCI-H1793,0.749
5,201T,1.1
6,NCI-H1915,1.03
7,HCC-827,0.971
8,LXF-289,0.92
9,NCI-H23,0.949
10,NCI-H650,0.968
11,CAL-12T,1.16
12,NCI-H1651,0.765
13,EPLC-272H,0.735
14,NCI-H1355,0.988
15,NCI-H322M,0.956
16,NCI-H1437,1.22
17,NCI-H1755,0.818
18,HCC-15,0.974
19,NCI-H1944,0.876
20,PC-3 [JPC-3],0.947
21,EKVX,0.615
22,LC-2-ad,0.915
23,NCI-H2170,0.953
24,NCI-H1975,0.911
25,ABC-1,1.01
26,RERF-LC-KJ,0.819

# Same assay, conditions: first compound 0.006325 µM
row,Cell Line,relative viability
1,LU99A,0.928
2,BEN,0.663
3,HARA,0.855
4,HCC-78,0.578
5,NCI-H441,0.836
6,LCLC-97TM1,0.967
7,A-427,1.19
8,NCI-H460,0.938
9,NCI-H727,0.839
10,NCI-H1734,0.895
11,NCI-H2405,1.06
12,NCI-H1793,0.696
13,201T,1.1
14,NCI-H1915,1.12
15,HCC-827,1.02
16,LXF-289,0.952
17,NCI-H23,1.04

row,Cell Line,relative viability
1,NCI-H650,1.03
2,CAL-12T,0.979
3,NCI-H1651,0.777
4,EPLC-272H,0.784
5,NCI-H1355,0.943
6,NCI-H322M,0.976
7,NCI-H1437,1.22
8,NCI-H1755,0.913
9,HCC-15,0.928
10,NCI-H1944,0.856
11,PC-3 [JPC-3],1.01
12,EKVX,0.784
13,LC-2-ad,0.859
14,NCI-H2170,0.898
15,NCI-H1975,0.955
16,ABC-1,0.995
17,RERF-LC-KJ,0.894

# Same assay, conditions: first compound 0.06325 µM
row,Cell Line,relative viability
1,LU99A,0.876
2,BEN,0.457
3,HARA,0.963
4,HCC-78,0.598
5,NCI-H441,1.01
6,LCLC-97TM1,0.944
7,A-427,1.11
8,NCI-H460,1
9,NCI-H727,0.64
10,NCI-H1734,0.821
11,NCI-H2405,1.04
12,NCI-H1793,0.707
13,201T,1.18
14,NCI-H1915,0.996
15,HCC-827,0.997
16,LXF-289,0.96
17,NCI-H23,1.04

row,Cell Line,relative viability
1,NCI-H650,1.02
2,CAL-12T,1.21
3,NCI-H1651,0.888
4,EPLC-272H,0.912
5,NCI-H1355,1.1
6,NCI-H322M,1.02
7,NCI-H1437,1.31
8,NCI-H1755,0.92
9,HCC-15,1.13
10,NCI-H1944,1.05
11,PC-3 [JPC-3],1.15
12,EKVX,0.846
13,LC-2-ad,0.966
14,NCI-H2170,0.966
15,NCI-H1975,1.03
16,ABC-1,1.15
17,RERF-LC-KJ,0.873

# Same assay, conditions: first compound 0.2 µM
row,Cell Line,relative viability
1,LU99A,0.774
2,BEN,0.674
3,HARA,0.878
4,HCC-78,0.534
5,NCI-H441,0.986
6,LCLC-97TM1,0.675
7,A-427,0.715
8,NCI-H460,0.967
9,NCI-H727,0.869
10,NCI-H1734,0.809
11,NCI-H2405,0.935
12,NCI-H1793,0.539
13,201T,1.03
14,NCI-H1915,1.01
15,HCC-827,1
16,LXF-289,0.943
17,NCI-H23,0.832

row,Cell Line,relative viability
1,NCI-H650,0.884
2,CAL-12T,1.09
3,NCI-H1651,0.814
4,EPLC-272H,0.416
5,NCI-H1355,0.971
6,NCI-H322M,0.814
7,NCI-H1437,1.28
8,NCI-H1755,0.804
9,HCC-15,1.01
10,NCI-H1944,0.859
11,PC-3 [JPC-3],1.03
12,EKVX,1.01
13,LC-2-ad,0.842
14,NCI-H2170,0.927
15,NCI-H1975,1.01
16,ABC-1,1.09
17,RERF-LC-KJ,0.867

# Compound: Cc1ccc(C(=O)Nc2ccc(CN3CCN(C)CC3)c(C(F)(F)F)c2)cc1C#Cc1cnc2cccnn12 [Ponatinib] + Cc1cc(Nc2cc(N3CCN(C)CC3)nc(Sc3ccc(NC(=O)C4CC4)cc3)n2)n[nH]1 [Tozasertib] (partner 0.1 µM)
# Assay: as above
# Settings: first compound 0.002 µM
# Outline: as §1
row,Cell Line,relative viability
1,LU99A,0.227
2,BEN,0.544
3,HARA,0.0958
4,HCC-78,0.385
5,NCI-H441,0.602
6,LCLC-97TM1,0.236
7,A-427,0.23
8,NCI-H460,0.407
9,NCI-H727,0.607
10,NCI-H1734,0.267
11,NCI-H2405,0.728
12,NCI-H1793,0.357
13,201T,0.924
14,NCI-H1915,0.396
15,HCC-827,0.403
16,LXF-289,0.205
